Experimental data: ChEMBL document CHEMBL1201862, “PubChem BioAssay data set” (2004)
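Cells were grown in 96-well plates and exposed to each compound for 48 hours at five concentrations; endpoints were interpolated linearly between bracketing concentrations, or set to the highest concentration if not reached. At the GI50, growth is halved.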 Activity calls are given as the source filed them. Rule as the data show it: active = GI50 up to about 1.1 µM and inactive = higher.

Columns and labels:
Assay in all cases: NCI tumour cell line growth inhibition, 48 h
A498 = test system: A498
EKVX = test system: EKVX
HT-29 = test system: HT-29
KM12 = test system: KM12
LOX IMVI = test system: LOX IMVI
MCF7 = test system: MCF7
NCI-H23 = test system: NCI-H23
SF-268 = test system: SF-268
SK-MEL-28 = test system: SK-MEL-28
SK-MEL-5 = test system: SK-MEL-5
SK-OV-3 = test system: SK-OV-3
SN12C = test system: SN12C
SW-620 = test system: SW-620
U-251 = test system: U-251
UACC-257 = test system: UACC-257
SR = test system: SR

Measured: GI50

CCN(CC)CCNC(=O)C1COc2ccc(-c3cc(=O)c4ccccc4o3)cc2O1 (configuration not stated)
inactive: A498 16 µM | EKVX 26.7 µM | HT-29 14.9 µM | KM12 18.2 µM | LOX IMVI 17.2 µM | MCF7 19.4 µM | NCI-H23 22 µM | SF-268 19.5 µM | SK-MEL-28 17.4 µM | SK-MEL-5 20.9 µM | SK-OV-3 23 µM | SN12C 19.1 µM | SW-620 18.5 µM | U-251 > 45.2 µM | UACC-257 17.6 µM

O=c1[nH]c2cc(-c3ccccc3)nc-2nn1-c1c(Cl)cc(Cl)cc1Cl
inactive: A498 33 µM | EKVX 24.9 µM | HT-29 34.4 µM | KM12 20.5 µM | LOX IMVI 24.3 µM | NCI-H23 24.9 µM | SF-268 > 100 µM | SK-MEL-28 > 100 µM | SK-MEL-5 25.9 µM | SK-OV-3 25.8 µM | SN12C 28.6 µM | SR 23.7 µM | SW-620 33.7 µM | U-251 19.1 µM | UACC-257 29.5 µM

COCCCNC(=O)C1C(=O)C(=O)N(CCCOC)C1=O (configuration not stated)
inactive: A498 > 100 µM | EKVX > 100 µM | HT-29 > 100 µM | LOX IMVI > 100 µM | NCI-H23 > 100 µM | SF-268 > 100 µM | SK-MEL-28 > 100 µM | SK-MEL-5 > 100 µM | SK-OV-3 > 100 µM | SN12C > 100 µM | SR > 100 µM | SW-620 > 100 µM | U-251 > 100 µM | UACC-257 > 100 µM

COC(=O)Cc1nn2c(nc1=O)sc1ccc3ccccc3c12
inactive: A498 > 100 µM | EKVX > 100 µM | HT-29 > 100 µM | KM12 > 100 µM | LOX IMVI 67.3 µM | NCI-H23 > 100 µM | SK-MEL-28 > 100 µM | SK-MEL-5 > 100 µM | SK-OV-3 > 100 µM | SN12C > 100 µM | SR > 100 µM | SW-620 > 100 µM | U-251 25.1 µM | UACC-257 > 100 µM

COC1(OC)CC2C=C(S(=O)(=O)c3ccccc3)C1N(Cc1ccccc1)C2=O (configuration not stated)
inactive: A498 22.4 µM | EKVX 91.4 µM | HT-29 28.1 µM | KM12 24.7 µM | LOX IMVI 16.1 µM | NCI-H23 15.2 µM | SF-268 > 100 µM | SK-MEL-28 31 µM | SK-MEL-5 32.3 µM | SK-OV-3 88.1 µM | SN12C 23 µM | SR 28.9 µM | SW-620 22.6 µM | U-251 34.8 µM | UACC-257 22.6 µM

COc1ccc(C2SCC(=O)N2NC(=O)c2ccncc2)cc1F (configuration not stated)
inactive: A498 > 100 µM | HT-29 > 100 µM | KM12 > 100 µM | LOX IMVI > 100 µM | NCI-H23 > 100 µM | SF-268 > 100 µM | SK-MEL-28 > 100 µM | SK-MEL-5 > 100 µM | SK-OV-3 > 100 µM | SN12C > 100 µM | SR > 100 µM | SW-620 > 100 µM | U-251 > 100 µM | UACC-257 > 100 µM

Nc1nc(SCc2ccc([N+](=O)[O-])cc2)nc2c1ncn2C1OC(COP(=O)(O)O)C(O)C1O (configuration not stated)
inactive: A498 > 100 µM | EKVX > 100 µM | HT-29 > 100 µM | KM12 > 100 µM | LOX IMVI > 100 µM | NCI-H23 > 100 µM | SF-268 > 100 µM | SK-MEL-28 > 100 µM | SK-MEL-5 > 100 µM | SK-OV-3 > 100 µM | SN12C > 100 µM | SR > 100 µM | SW-620 > 100 µM | U-251 > 100 µM | UACC-257 > 100 µM

CCc1cccc(C(C)C)c1NC(=O)C(=O)C(CC(=O)Nc1ccc(Cl)c(Cl)c1)C(=O)OC (configuration not stated)
inactive: A498 > 100 µM | EKVX > 100 µM | HT-29 > 100 µM | KM12 43.7 µM | LOX IMVI > 100 µM | NCI-H23 > 100 µM | SF-268 > 100 µM | SK-MEL-28 > 100 µM | SK-MEL-5 55.8 µM | SK-OV-3 > 100 µM | SN12C > 100 µM | SR > 100 µM | SW-620 10 µM | U-251 > 100 µM | UACC-257 > 100 µM

COc1ccc(/C=c2\sc3nnc(CCC(=O)Nc4cccc(C(F)(F)F)c4)n3c2=O)cc1
inactive: A498 > 100 µM | EKVX > 100 µM | HT-29 > 100 µM | KM12 > 75.9 µM | LOX IMVI > 100 µM | NCI-H23 > 100 µM | SF-268 97.5 µM | SK-MEL-28 > 74.3 µM | SK-MEL-5 > 100 µM | SK-OV-3 > 100 µM | SN12C > 100 µM | SR 42.6 µM | SW-620 > 100 µM | U-251 > 94.2 µM | UACC-257 > 100 µM
